{"source": "a melting point compilation (Tetko et al.; mined from patent text by program, amines drawn as free bases though some values may be those of a salt)"}
{"units": {"melting point": "°C"}}
{"molecule": "CCN1CCc2ccc(Nc3ncc(Cl)c(N[C@@H]4CCCC[C@H]4NC(C)=O)n3)cc2CC1", "melting point": "248 to 250"}
{"molecule": "CCc1cc(Br)c2c(O)c(C(=O)OC)c(C(=O)OC)nc2c1", "melting point": "207 to 208"}
{"molecule": "N#Cc1ncn2c1[C@@H]1CCN1C(=O)c1sccc1-2", "melting point": "211 to 213"}
{"molecule": "CCOC(=O)c1c(C)c(C(=O)CC#N)n(C)c1C", "melting point": 105}
{"molecule": "Cc1ccccc1-c1nc(-c2ccc(F)cc2)n[nH]1", "melting point": "119 to 121"}
{"molecule": "CC(C)(C)c1cc(C(C)(C)C)c2oc(N)c(-c3ccccc3)c2c1", "melting point": "174 to 178"}
{"molecule": "CCN1c2ncc(CCl)cc2C(=O)N(C)c2ccc(Cl)nc21", "melting point": "133 to 134"}
{"molecule": "COc1cc2cc(Br)c(C)cc2c(C(C)C)c1OC", "melting point": "62 to 63"}
{"molecule": "C=CCOc1ccc(C(=O)CC(C)(C#N)c2ccc(OC)cc2OC)cc1", "note": "(stereo not drawn)", "melting point": "77.8 to 78.5"}
{"molecule": "N=C1C=CC=CC1Cc1cccc2c1NCC2", "note": "(stereo not drawn)", "melting point": "62 to 63"}
{"molecule": "Cc1oc(-c2ccc(C(F)(F)F)cc2)cc1C(=O)Nc1cccc(C=O)c1", "melting point": "183 to 184"}
{"molecule": "CC1(CN)CN(c2c(F)cc3c(=O)c(C(=O)O)cn(C4CC4)c3c2F)C1", "melting point": "268 to 270"}
{"molecule": "Cc1nn(-c2cc3nc(S(=O)(=O)Cc4ccccc4Cl)sc3cc2Cl)c(=O)n1C(F)F", "melting point": "196 to 198"}
{"molecule": "CS(=O)(=O)N(Cc1cccnc1)c1cccc([N+](=O)[O-])c1", "melting point": "131 to 133"}
{"molecule": "COc1ccc(CCNC(=O)C(F)(F)F)cc1", "melting point": "74 to 77"}
{"molecule": "Cc1sc(CCc2ccc(CO)cc2)nc1-c1ccccc1", "melting point": "62 to 63"}
{"molecule": "CNC(=O)C1Cc2c(n(C)c3ccc(OCc4ccccc4)cc23)C1", "note": "(stereo not drawn)", "melting point": "176 to 177"}
{"molecule": "CCc1cc2c(s1)N(C(=O)NCCN(C)C)CCN=C2c1ccccc1Cl", "melting point": "160 to 162"}
{"molecule": "CC(C)(C)OC(=O)N1CCC(CC(=O)Nc2cccc(-c3ccnc4c(C(=O)c5cccs5)cnn34)c2)CC1", "melting point": "173 to 175"}
{"molecule": "COc1cccc(-c2nccc3[nH]c(=O)c(-c4noc(C)n4)cc23)c1", "melting point": "281 to 282"}
{"molecule": "CN1Cc2c(C(=O)NN)ncn2-c2ccc(F)c(Cl)c2C1=O", "melting point": "308 to 310"}
{"molecule": "CN(C)c1ncc2c(=O)n(CCN3CCCCC3)sc2n1", "melting point": "128 to 129"}
{"molecule": "Cn1c(=O)c(Cl)nc2ccccc21", "melting point": "124 to 130"}
{"molecule": "CCN(C(=O)COc1nc(-c2ccc(N)cc2)nc(C)c1C)c1ccccc1", "melting point": "183 to 185"}
{"molecule": "CCN(CC)CCOc1ccc(Nc2ncc3c(n2)N(C(C)C)C(=O)N(c2c(Cl)cccc2Cl)C3)cc1", "melting point": 125}
{"molecule": "COC(N)=CC(=O)C(C)(C)C", "melting point": "79 to 79.5"}
{"molecule": "COc1ccc(C(=O)Nc2cccc(-c3cccc4c3/C(=C/c3ccc[nH]3)C(=O)N4)c2)cc1", "melting point": "209 to 211"}
{"molecule": "O=C(O)[C@H]1CN(c2ccc(C3=CCSCC3)c(F)c2)C(=O)O1", "melting point": "106 to 110"}
{"molecule": "CCOc1nn(Cc2cccc(OCCn3ncc4ccccc4c3=O)c2)cc1CCC(=O)O", "melting point": "146 to 147"}
{"molecule": "CC(C)(C)CC1NC(C(=O)NCC2CCC(O)CC2)C(c2cccc(Cl)c2F)C12C(=O)Nc1cc(Cl)ccc12", "note": "(stereo not drawn)", "melting point": 192}
{"molecule": "CCCc1nc(C)cc(=O)n1CCOc1ccc(C=C2SC(=O)NC2=O)cc1", "melting point": "240 to 242"}
{"molecule": "Cc1noc(NS(=O)(=O)c2ccccc2-c2ccc(C(F)(F)F)cc2)c1C", "melting point": "57 to 62"}
{"molecule": "O=C(NCCN1CCC(Nc2nc3ccccc3n2Cc2ccc(F)cc2)CC1)c1ccc(F)cc1", "melting point": 194}
{"molecule": "CC(C)c1cc(C(C)C)n(-c2ccc(NC(=O)c3cccnc3)cc2)n1", "melting point": "190 to 192"}
{"molecule": "CC(=CCc1c(C)nc(N)nc1N)c1cc(Cl)ccc1Cl", "melting point": "172 to 174"}
{"molecule": "O=C(NCCc1c2n(c3ccc(O)nc13)CCCC2)c1ccco1", "melting point": 270}
{"molecule": "CNC(=O)N(O)C(C)c1ccc(Cl)c(C)c1", "note": "(stereo not drawn)", "melting point": "99 to 102"}
{"molecule": "CN1CCC(CC(=O)N2c3ccccc3NC(=O)c3ccccc32)CC1", "melting point": "> 95"}
{"molecule": "O=C(O)C1=Cc2cc(Cl)c(Oc3ccc(C(=O)O)cc3Cl)cc2OC1C(F)(F)F", "note": "(stereo not drawn)", "melting point": "> 300"}
{"molecule": "CC(=O)Nc1cccc(-c2csc(NC(N)=S)n2)c1C", "melting point": "228 to 230"}
{"molecule": "N=C(NO)c1ccc2nc(N[C@@H]3CCc4ccccc43)ccc2c1", "melting point": 236}
{"molecule": "Cc1nc2cccnc2n(-c2ccc(F)cc2)c1=O", "melting point": "270 to 271"}
{"molecule": "OCCN1CCN(c2cc(Cl)nc(-c3ccccc3)n2)CC1", "melting point": "103 to 105"}
{"molecule": "CCOC(=O)C1=C(CO)NC(C)=C(C(=O)OCCOCc2ccccc2)C1c1cccc([N+](=O)[O-])c1", "note": "(stereo not drawn)", "melting point": "112 to 114"}
{"molecule": "COc1ccc(C(=O)N2CCc3cc(OCc4ccccc4)c(OC)cc3C2=O)cc1", "melting point": "151 to 152"}
{"molecule": "Cc1ccc(NC(=O)c2ccc(C(=O)Nc3ccccc3N)cc2)cc1Nc1nc(-c2cccnc2)cs1", "melting point": 147}
{"molecule": "O=C(O)c1ccc(-c2ccc(Cl)cc2)cc1", "melting point": "191 to 192"}
{"molecule": "COc1ccc(O)c(OC)c1-c1ccc(C[C@H](NC(=O)c2c(Cl)cccc2Cl)C(=O)O)cc1", "melting point": "164 to 165"}
{"molecule": "CN(Cc1cc2c3c(c1)c(=O)c(C(=O)NCc1ccc(F)cc1)cn3CC(=O)N2C)C[C@@H](O)c1ccsc1", "melting point": "150 to 152"}
{"molecule": "CCC1(CC)NC(C)(COC(=O)C(C)(C)C)COC1=O", "note": "(stereo not drawn)", "melting point": "51 to 53"}
{"molecule": "O=C(Nc1ccccc1)OCCCC(=O)c1ccccc1", "melting point": "121 to 123"}
{"molecule": "CC(C)(C)c1ccc(C2C=C(c3ccccc3)NN2c2ccccc2)cc1", "note": "(stereo not drawn)", "melting point": "150 to 153"}
{"molecule": "C=C1C(=C)C2OC1C1=C2Cc2c(OC)ccc(OC)c2C1", "melting point": "177 to 178"}
{"molecule": "O=S(=O)(Cc1ccccc1)On1nnc2ccc(Cl)cc21", "melting point": "126 to 128"}
{"molecule": "Cc1cnc(NS(=O)(=O)c2cccc(Cl)c2Cl)c(OCc2ccco2)n1", "melting point": "127 to 129"}
{"molecule": "COCON=C(C(C)=O)C(=O)OC", "melting point": "115 to 120"}
{"molecule": "COc1cc(C)nc(NC(=O)NS(=O)(=O)c2cccc3c2OS(=O)(=O)C(C)C3)n1", "note": "(stereo not drawn)", "melting point": "215 to 218"}
{"molecule": "CCn1cc(-c2nc(C(N)=O)c(N)nc2-c2ccccc2)ccc1=O", "melting point": "> 250"}
{"molecule": "Cc1c(-c2cccnc2)n(CCCC=CC(=O)O)c2ccccc12", "melting point": "145 to 147"}
{"molecule": "CCCS(=O)(=O)NCc1ccc2ccn(C3CCN(CCc4ccc(F)cc4)CC3)c2c1", "melting point": "80 to 81"}
{"molecule": "COc1cc(OC)c2c(=O)[nH]c(-c3cc(C)c(OCCN4CCOCC4)c(C)c3)cc2c1", "melting point": "196 to 198"}
{"molecule": "COc1cccc(-c2cccc3c2C(=O)OC(C)(C)O3)n1", "melting point": "130 to 132"}
{"molecule": "N#Cc1c2cccccc-2nc1NCCC(c1ccccc1)c1ccccc1", "melting point": "178 to 180"}
{"molecule": "Cc1cc(Cl)n2nc(CN=[N+]=[N-])nc2n1", "melting point": "130 to 132"}
{"molecule": "COc1ccc(C(=O)CC(C)(C)C(=O)O)c2c1OC(C)(C)C2", "melting point": "159 to 160"}
{"molecule": "COC1=C(OC)C(=O)C(Cl)=C(C)C1=O", "melting point": "66 to 68"}
{"molecule": "C/C(=C\\c1cccc2ccccc12)C(=O)O", "melting point": 155}
{"molecule": "COc1ccc(NN=C2C(=O)Nc3ccc(C4=NNC(=O)SC4C)cc32)cc1", "note": "(stereo not drawn)", "melting point": 273}
{"molecule": "N#C[C@@H]1C[C@@H]2C[C@@H]2N1C(=O)[C@@H](NC(=O)OCc1ccccc1)C12CC3CC(CC(O)(C3)C1)C2", "melting point": "105 to 106"}
{"molecule": "O=C(O)C1CCc2c([nH]c3ccc(F)cc23)C1", "note": "(stereo not drawn)", "melting point": "> 200"}
{"molecule": "O=C(O)CCS(=O)(=O)NCCOCCc1ccccc1", "melting point": "80 to 82"}
{"molecule": "CCOc1nc2c(nc1C(=O)O)c(C)nn2CC", "melting point": 172}
{"molecule": "CC(C)(C)OC(=O)Nc1ccc(Cl)c(O)c1", "melting point": "103 to 106"}
{"molecule": "CCCCCN1N=C(c2ccc3c(c2)N(S(C)(=O)=O)CCO3)CCC1=O", "melting point": "138 to 139"}
{"molecule": "COc1ccccc1-c1cccn2nc(Nc3ccc4c(c3)CCN(CCS(C)(=O)=O)CC4)nc12", "melting point": "91 to 94"}
{"molecule": "NC(=O)C(N)Cc1ccc([N+](=O)[O-])cc1", "note": "(stereo not drawn)", "melting point": "160 to 162"}
{"molecule": "N#Cc1[nH]c(Br)c(Br)c1-c1ccc(Cl)cc1", "melting point": "> 250"}
{"molecule": "Clc1ccc2cc3ccccc3cc2c1", "melting point": "220 to 221"}
{"molecule": "Cc1nnc(C(O)CCCCCCOc2ccccc2)o1", "note": "(stereo not drawn)", "melting point": "50 to 52"}
{"molecule": "CS(=O)c1ccc(-n2cnc3ccc(-c4nnc(S)o4)cc32)cc1", "note": "(stereo not drawn)", "melting point": "299 to 300"}
{"molecule": "CCOC(=O)CCCCCC=C(NCCC(O)C1CCCCC1)C(=O)OCC", "note": "(stereo not drawn)", "melting point": "97 to 99"}
{"molecule": "COc1ccc(-c2cc(C=O)c3occc3c2)cc1", "melting point": "94 to 95"}
{"molecule": "O=C(O)CC(CC(=O)O)Cc1ccc(O)cc1", "melting point": "117 to 119"}
{"molecule": "ON=C(Cn1cncn1)c1ccc(Cl)cc1Cl", "melting point": 117}
{"molecule": "CCOC(=O)c1c(O)c2cccnc2n(CC)c1=O", "melting point": "120 to 122"}
{"molecule": "CC1(C)N(C=O)CC(=O)N1CC(N)=O", "melting point": "211 to 213"}
{"molecule": "COC(=O)c1cc(C2=CCCO2)c(C(F)(F)F)cc1NC(C)=O", "melting point": "120 to 125"}
{"molecule": "C=CCN(c1ccccc1)c1ncc(C(C)C(=O)O)s1", "note": "(stereo not drawn)", "melting point": "134 to 135"}
{"molecule": "COc1ccc(CN2C(=O)CC2CC(=O)O)c(OC)c1", "note": "(stereo not drawn)", "melting point": "90 to 91"}
{"molecule": "Cc1cc(Cl)ccc1OCC(=O)N1Cc2ccc(C(=O)NCc3cccnc3)n2Cc2ccccc21", "melting point": 168}
{"molecule": "O=C(Nc1ccc(-n2nc(C3CC3)cc2C2CC2)cc1)c1ccncc1F", "melting point": "135 to 139"}
{"molecule": "Cn1nc2n(c1=O)-c1ccc(Cl)cc1C(c1ccccc1F)=CC2", "melting point": "142 to 143"}
{"molecule": "OCCC(=C(c1ccccc1)c1ccccc1)c1ccccc1", "melting point": "117 to 119"}
{"molecule": "COc1ccc(N2CCN(C)CC2)c2c1CCC(C(=O)Nc1ccc(N3CCOCC3)cc1)C2", "note": "(stereo not drawn)", "melting point": "230 to 232"}
{"molecule": "Oc1cc2c(cc1CNc1ccc(F)cc1F)OCC2", "melting point": "119 to 121"}
{"molecule": "CCC(=O)SCCNC(=O)CCNC(=O)OCc1ccccc1", "melting point": "77 to 104"}
{"molecule": "Cc1ccc2c(=O)n(C3CCC(=O)NC3=O)cnc2c1", "note": "(stereo not drawn)", "melting point": "313 to 315"}
{"molecule": "COc1cc2c3cc(OC)c(OC)cc3n(S(=O)(=O)c3ccccc3)c2cc1OC", "melting point": "212 to 213"}
{"molecule": "O=[N+]([O-])c1ccc(SSc2nc3ccccc3s2)c(C(Cl)(Cl)Cl)c1", "melting point": 97}
{"molecule": "Clc1ccc(C(N=C2NCCN2)c2ccccc2)cc1", "note": "(stereo not drawn)", "melting point": "187 to 189"}
{"molecule": "O=C(O)CCCCCCCc1nn(-c2ccccc2)c2c1CCC2", "melting point": "55 to 57"}
{"molecule": "OC[C@H](O)[C@@H](O)CCNCc1ccccc1", "melting point": "117 to 118"}
{"molecule": "CC(=O)C(=NO)c1ccc(F)cc1F", "melting point": "126 to 129"}
